These results are taken from ChEMBL document CHEMBL3286195, “Discovery of (10R)-7-amino-12-fluoro-2,10,16-trimethyl-15-oxo-10,15,16,17-tetrahydro-2H-8,4-(metheno)pyrazolo[4,3-h][2,5,11]-benzoxadiazacyclotetradecine-3-carbonitrile (PF-06463922), a macrocyclic inhibitor of anaplastic lymphoma kinase (ALK) and c-ros oncogene 1 (ROS1) with preclinical brain …” (J Med Chem, 2014).

Series [1] is described as follows: in vitro. Particulars: human, liver microsomes.
Description: Apparent total intrinsic clearance in human liver microsomes
A short description of series [2]: physchem. Particulars: octanol/water, pH 7.4.
For series [3], the target named is BDNF/NT-3 growth factors receptor (Homo sapiens, UniProt Q16620).
BDNF/NT-3 growth factors receptor, sequence (Q16620 whole entry): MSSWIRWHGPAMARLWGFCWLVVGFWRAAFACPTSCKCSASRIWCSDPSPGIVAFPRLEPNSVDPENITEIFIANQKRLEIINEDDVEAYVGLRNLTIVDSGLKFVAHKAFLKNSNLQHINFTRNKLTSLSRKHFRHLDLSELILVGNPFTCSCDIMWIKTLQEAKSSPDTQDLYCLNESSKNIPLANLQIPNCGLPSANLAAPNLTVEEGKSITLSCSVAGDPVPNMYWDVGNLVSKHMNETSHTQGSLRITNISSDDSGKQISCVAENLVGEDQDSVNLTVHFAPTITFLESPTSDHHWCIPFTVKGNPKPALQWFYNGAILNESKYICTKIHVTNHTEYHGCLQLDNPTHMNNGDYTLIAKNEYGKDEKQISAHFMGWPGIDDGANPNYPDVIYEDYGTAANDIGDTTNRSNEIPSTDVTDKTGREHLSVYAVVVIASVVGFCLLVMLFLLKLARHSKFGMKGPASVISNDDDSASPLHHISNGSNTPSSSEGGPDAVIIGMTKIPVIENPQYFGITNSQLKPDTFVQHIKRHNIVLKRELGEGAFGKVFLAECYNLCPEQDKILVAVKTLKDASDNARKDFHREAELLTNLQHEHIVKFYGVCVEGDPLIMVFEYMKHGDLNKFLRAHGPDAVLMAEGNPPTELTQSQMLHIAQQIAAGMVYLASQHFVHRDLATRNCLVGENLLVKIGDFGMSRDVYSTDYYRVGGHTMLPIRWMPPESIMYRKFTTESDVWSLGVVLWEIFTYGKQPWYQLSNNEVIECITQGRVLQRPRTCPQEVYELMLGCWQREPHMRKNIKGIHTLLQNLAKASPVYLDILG
Description: Inhibition of TRKB (unknown origin) by off-chip mobility shift assay
Series [4] concerns Brain. As to the kind of experiment: fAUC in rat brain at 10 mg/kg, po. The class given is ADME, organism-based. Also on record: dose 10 mg/kg, route oral. Particulars: in vivo.
The nature of series [5]: AUC (0 to 24 hrs) in rat at 10 mg/kg, po qd. Format: ADME, organism-based. Particulars: plasma. Also noted: time < 24 hr, dose 10 mg/kg, route oral.
For series [6], the target named is Focal adhesion kinase 1 (Homo sapiens, UniProt Q05397).
Description: Inhibition of PTK2 (unknown origin) by TR-FRET-based Z'-LYTE assay
Series [7] has as its system Plasma. Description: fAUC in rat plasma at 10 mg/kg, po. Format: ADME, organism-based. Also on record: dose 10 mg/kg, route oral. The conditions noted are these: in vivo.
Series [8] is described as follows: Fraction unbound in rat plasma at 2.4 uM. The class given is ADME, cell-free.
The nature of series [9]: AUC in rat plasma at 10 mg/kg, po. Format: ADME, organism-based. Also on record: dose 10 mg/kg, route oral.
A short description of series [10]: Tmax in rat at 10 mg/kg, po qd. Format: ADME, organism-based. Also noted: dose 10 mg/kg, route oral. The conditions noted are these: in vivo.
In series [11] the target is High affinity nerve growth factor receptor (Homo sapiens, UniProt P04629). As to the kind of experiment: Inhibition of […] (unknown origin) by TR-FRET-based Z'-LYTE assay.
High affinity nerve growth factor receptor, sequence (P04629 whole entry): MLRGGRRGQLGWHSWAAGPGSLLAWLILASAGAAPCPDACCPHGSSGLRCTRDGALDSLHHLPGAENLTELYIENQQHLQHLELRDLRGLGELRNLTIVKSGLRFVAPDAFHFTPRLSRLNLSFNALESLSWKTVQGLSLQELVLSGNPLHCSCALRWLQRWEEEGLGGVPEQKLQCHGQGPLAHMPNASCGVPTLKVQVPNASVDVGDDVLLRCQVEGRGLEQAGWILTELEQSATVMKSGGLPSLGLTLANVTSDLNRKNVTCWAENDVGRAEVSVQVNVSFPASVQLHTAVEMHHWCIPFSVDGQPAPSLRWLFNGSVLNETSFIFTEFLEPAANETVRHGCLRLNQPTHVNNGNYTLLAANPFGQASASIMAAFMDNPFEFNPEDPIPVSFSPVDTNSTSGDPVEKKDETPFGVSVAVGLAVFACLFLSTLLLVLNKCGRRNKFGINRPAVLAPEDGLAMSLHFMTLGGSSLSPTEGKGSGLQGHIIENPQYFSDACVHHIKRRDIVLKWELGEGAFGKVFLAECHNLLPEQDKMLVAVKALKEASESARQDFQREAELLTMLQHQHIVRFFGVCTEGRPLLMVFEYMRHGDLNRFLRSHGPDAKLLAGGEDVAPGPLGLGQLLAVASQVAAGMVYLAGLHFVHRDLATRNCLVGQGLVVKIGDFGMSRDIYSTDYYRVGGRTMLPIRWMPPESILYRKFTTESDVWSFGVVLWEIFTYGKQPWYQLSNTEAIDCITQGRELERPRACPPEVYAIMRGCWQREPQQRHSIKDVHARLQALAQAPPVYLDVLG
The target of series [12] is Leukocyte tyrosine kinase receptor (Homo sapiens, UniProt P29376). Description: Inhibition of LTK (unknown origin) by TR-FRET-based Z'-LYTE assay.
The target of series [13] is Tyrosine-protein kinase Fes/Fps (Homo sapiens, UniProt P07332). Description: Inhibition of FES (unknown origin) by TR-FRET-based Z'-LYTE assay.
Series [14] addresses Tyrosine-protein kinase Fer (Homo sapiens, UniProt P16591). As to the kind of experiment: Inhibition of FER (unknown origin) by TR-FRET-based Z'-LYTE assay.
Series [15] can be described thus: Fraction unbound in rat brain at 2.4 uM. The class given is ADME, tissue-based.
Series [16] has as its system Plasma. Description: Average plasma concentration in rat at 10 mg/kg, po qd. The conditions noted are these: in vivo. Also noted: dose 10 mg/kg, route oral. Format: ADME, organism-based.
Series [17] is described as follows: AUC in rat brain at 10 mg/kg, po. Format: ADME, organism-based. Also on record: dose 10 mg/kg, route oral.
A short description of series [18]: Cmax in rat at 10 mg/kg, po qd. Format: ADME, organism-based. The conditions noted are these: in vivo. Also on record: dose 10 mg/kg, route oral.
Series [19] can be described thus: Half life in rat at 1 mg/kg, iv qd. Format: ADME, organism-based. Also on record: dose 1 mg/kg, route intravenous. Particulars: in vivo.
In series [20] the test system is Rattus norvegicus. Description: fCmax in rat at 10 mg/kg, po qd. Particulars: in vivo. Also on record: dose 10 mg/kg, route oral. The class given is ADME, organism-based.
A short description of series [21]: fAUC in rat CSF at 10 mg/kg, po. The class given is ADME, organism-based, Cerebrospinal fluid. Also on record: dose 10 mg/kg, route oral. Particulars: in vivo.
Series [22] in a line: Plasma clearance in rat at 1 mg/kg, iv qd. Format: ADME, organism-based. Also on record: dose 1 mg/kg, route intravenous.
Series [23] can be described thus: Volume of distribution at steady state in rat at 1 mg/kg, iv qd. The class given is ADME, organism-based. Also on record: dose 1 mg/kg, route intravenous. Particulars: in vivo, read-out: Vdss.
For series [24], the target named is Protein-tyrosine kinase 2-beta (Homo sapiens, UniProt Q14289).
Description: Inhibition of PTK2B (unknown origin) by TR-FRET-based Z'-LYTE assay
Series [25] can be described thus: AUC (infinity) in rat at 1 mg/kg, iv qd. Format: ADME, organism-based. Also on record: time infinity, dose 1 mg/kg, route intravenous. The conditions noted are these: plasma.
The nature of series [26]: Oral bioavailability in rat at 10 mg/kg qd. Format: ADME, organism-based. Particulars: in vivo.
The target of series [27] is Activated CDC42 kinase 1 (Homo sapiens, UniProt Q07912).
Activated CDC42 kinase 1, sequence (Q07912 whole entry): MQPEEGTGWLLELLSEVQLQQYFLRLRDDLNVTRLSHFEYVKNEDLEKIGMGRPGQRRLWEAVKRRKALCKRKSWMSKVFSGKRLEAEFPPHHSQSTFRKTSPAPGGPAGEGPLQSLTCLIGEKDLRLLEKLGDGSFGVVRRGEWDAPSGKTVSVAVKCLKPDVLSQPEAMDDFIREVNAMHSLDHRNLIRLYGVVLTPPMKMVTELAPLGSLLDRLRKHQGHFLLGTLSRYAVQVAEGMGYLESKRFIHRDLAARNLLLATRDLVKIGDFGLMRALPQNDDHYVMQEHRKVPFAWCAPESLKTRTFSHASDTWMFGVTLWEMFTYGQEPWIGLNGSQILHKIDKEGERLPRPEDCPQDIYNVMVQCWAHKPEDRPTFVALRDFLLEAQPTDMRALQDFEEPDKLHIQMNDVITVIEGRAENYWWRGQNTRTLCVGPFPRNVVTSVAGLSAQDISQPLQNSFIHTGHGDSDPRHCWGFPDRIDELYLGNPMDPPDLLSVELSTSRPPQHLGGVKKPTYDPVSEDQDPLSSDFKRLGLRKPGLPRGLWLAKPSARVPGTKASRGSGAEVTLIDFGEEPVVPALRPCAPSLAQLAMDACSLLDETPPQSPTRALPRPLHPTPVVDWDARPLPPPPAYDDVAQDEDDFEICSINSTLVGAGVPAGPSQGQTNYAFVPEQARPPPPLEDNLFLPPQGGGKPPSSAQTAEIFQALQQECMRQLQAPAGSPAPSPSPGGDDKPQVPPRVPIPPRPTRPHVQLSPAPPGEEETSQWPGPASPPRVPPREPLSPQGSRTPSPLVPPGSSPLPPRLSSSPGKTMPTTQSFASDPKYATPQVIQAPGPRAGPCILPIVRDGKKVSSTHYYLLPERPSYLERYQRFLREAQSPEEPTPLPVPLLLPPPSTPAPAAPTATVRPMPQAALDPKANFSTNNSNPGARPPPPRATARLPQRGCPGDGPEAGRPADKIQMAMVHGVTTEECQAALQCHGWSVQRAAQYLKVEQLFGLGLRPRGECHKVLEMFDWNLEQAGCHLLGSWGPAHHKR
Description: Inhibition of TNK2 (unknown origin) by TR-FRET-based Z'-LYTE assay
Series [28] concerns the target NT-3 growth factor receptor (Homo sapiens, UniProt Q16288).
Description: Inhibition of NRTK3 (unknown origin) by TR-FRET-based Z'-LYTE assay
Series [29] in a line: AUC in rat CSF at 10 mg/kg, po. Format: ADME, organism-based, Plasma. Also on record: dose 10 mg/kg, route oral.
The target in series [30] is Tyrosine-protein kinase FRK (Homo sapiens, UniProt P42685). As to the kind of experiment: Inhibition of FRK (unknown origin) by TR-FRET-based Z'-LYTE assay.
Tyrosine-protein kinase FRK, sequence (P42685 whole entry): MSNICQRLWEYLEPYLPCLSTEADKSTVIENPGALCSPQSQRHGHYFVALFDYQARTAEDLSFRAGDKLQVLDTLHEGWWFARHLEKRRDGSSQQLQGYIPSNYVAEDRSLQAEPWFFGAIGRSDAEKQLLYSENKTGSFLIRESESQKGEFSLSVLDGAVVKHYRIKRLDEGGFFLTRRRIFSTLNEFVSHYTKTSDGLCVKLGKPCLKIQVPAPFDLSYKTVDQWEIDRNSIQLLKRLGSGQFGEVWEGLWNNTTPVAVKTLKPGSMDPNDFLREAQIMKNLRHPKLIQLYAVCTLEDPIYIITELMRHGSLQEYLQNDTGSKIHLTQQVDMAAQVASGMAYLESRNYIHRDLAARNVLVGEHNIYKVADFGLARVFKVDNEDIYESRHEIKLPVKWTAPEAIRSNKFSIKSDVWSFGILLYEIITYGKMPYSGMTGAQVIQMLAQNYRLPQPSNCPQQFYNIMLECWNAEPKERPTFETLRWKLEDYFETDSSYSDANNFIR
Series [31] relates to MDR1. As to the kind of experiment: in vitro. The conditions noted are these: dog, MDCK-MDR1, pH 7.4.
Description: Efflux ratio of permeability from basolateral to apical side to apical to basolateral side of MDCK cells expressing MDR1 at pH 7.4
In series [32] the target is ALK tyrosine kinase receptor (Homo sapiens, UniProt Q9UM73, L1196M).
In series [33] the target is ALK tyrosine kinase receptor (Homo sapiens, UniProt Q9UM73).
ALK tyrosine kinase receptor (Homo sapiens, UniProt Q9UM73), sequence (Q9UM73 whole entry): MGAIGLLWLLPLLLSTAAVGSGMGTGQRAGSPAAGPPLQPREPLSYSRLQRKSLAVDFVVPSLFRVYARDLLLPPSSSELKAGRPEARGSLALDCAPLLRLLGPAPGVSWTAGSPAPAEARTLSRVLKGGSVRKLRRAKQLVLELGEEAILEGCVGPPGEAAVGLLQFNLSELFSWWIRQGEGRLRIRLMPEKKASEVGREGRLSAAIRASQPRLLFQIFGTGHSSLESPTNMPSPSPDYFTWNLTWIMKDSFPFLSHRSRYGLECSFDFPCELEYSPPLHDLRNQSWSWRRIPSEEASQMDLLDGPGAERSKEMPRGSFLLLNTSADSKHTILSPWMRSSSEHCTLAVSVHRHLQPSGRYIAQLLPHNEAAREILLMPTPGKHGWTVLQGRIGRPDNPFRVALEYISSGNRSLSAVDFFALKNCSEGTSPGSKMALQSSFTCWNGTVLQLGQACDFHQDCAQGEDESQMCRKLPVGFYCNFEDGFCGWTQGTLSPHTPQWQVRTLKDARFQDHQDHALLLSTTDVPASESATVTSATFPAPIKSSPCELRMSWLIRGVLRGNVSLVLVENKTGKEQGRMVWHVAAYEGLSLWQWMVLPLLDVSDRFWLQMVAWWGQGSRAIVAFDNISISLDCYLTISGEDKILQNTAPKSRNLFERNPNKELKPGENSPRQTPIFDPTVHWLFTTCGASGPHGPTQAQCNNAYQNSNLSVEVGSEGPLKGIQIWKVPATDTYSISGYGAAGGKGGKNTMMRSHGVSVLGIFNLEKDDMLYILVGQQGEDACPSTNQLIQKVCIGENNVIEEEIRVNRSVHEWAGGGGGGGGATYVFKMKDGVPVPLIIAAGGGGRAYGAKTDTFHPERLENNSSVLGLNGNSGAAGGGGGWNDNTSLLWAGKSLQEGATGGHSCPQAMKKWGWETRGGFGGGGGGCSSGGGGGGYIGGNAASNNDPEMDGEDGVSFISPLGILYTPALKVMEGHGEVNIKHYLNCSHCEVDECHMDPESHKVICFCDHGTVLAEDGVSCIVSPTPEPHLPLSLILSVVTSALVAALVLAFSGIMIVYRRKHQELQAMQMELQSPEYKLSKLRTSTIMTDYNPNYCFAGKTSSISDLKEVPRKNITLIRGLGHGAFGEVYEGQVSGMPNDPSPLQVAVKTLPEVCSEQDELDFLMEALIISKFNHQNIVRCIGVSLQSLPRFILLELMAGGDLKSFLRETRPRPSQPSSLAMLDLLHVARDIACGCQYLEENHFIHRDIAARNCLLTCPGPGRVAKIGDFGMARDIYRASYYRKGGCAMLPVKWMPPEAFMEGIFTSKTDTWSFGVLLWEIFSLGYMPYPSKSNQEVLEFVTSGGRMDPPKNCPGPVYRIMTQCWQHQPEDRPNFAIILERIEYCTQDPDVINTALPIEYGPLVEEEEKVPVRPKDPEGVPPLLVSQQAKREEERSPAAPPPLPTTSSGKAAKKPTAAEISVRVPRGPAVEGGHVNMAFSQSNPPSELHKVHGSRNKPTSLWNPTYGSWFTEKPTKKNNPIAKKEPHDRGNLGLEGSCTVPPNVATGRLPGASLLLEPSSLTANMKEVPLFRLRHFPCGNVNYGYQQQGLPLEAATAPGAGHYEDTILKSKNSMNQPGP

Molecule `COc1nn(C)c2c1-c1cnc(N)c(n1)O[C@H](C)c1cc(F)ccc1C(=O)N(C)C2` gave a CLint scaled in [1] of 23.5 mL/min/kg. For the same molecule, the logD in series [2] is 2.7.

In the case of `C[C@@H](Oc1cc(-c2cnnn2C)cnc1N)c1cc(F)ccc1-n1nccn1`, the intrinsic metabolic clearance (CLint scaled) in [1] was determined as 8 mL/min/kg.

Molecule `Cc1nn(C)c2c1-c1cnc(N)c(c1)O[C@H](C)c1cc(F)ccc1C(=O)N(C)C2` registered a Ki in series [3] of 0.0005 µM. The same molecule yielded an intrinsic clearance (CLint scaled) in series [1] of 8.6 mL/min/kg. Besides, the logD in [2] amounted to 2.2.

On to `C[C@H]1Oc2cc(cnc2N)-c2c(nn(C)c2C#N)CN(C)C(=O)c2ccc(F)cc21` [LORLATINIB], for which the values for the fAUC in [4], in [7] and in [21] were 2.355 µM·h, 11.052 µM·h and 3.475 µM·h, respectively. For the same molecule, the area under the curve (AUC) at 24 h in [5] stood at 14900 ng·h/mL. Also, the IC50 was 0.017 µM in series [6]; 0.024 µM in series [11]; 0.0027 µM in series [12]; 0.006 µM in series [13]; 0.0033 µM in [14]; 0.014 µM in series [24]. Moreover, the half-inhibitory concentration (IC50) was determined as 0.017 µM in series [27], 0.046 µM in series [28] and 0.053 µM in [30]. Further, the unbound share (fraction unbound) at 2.4 µM in [8] was determined as 0.36; in series [15], 0.12. Also, the values for the AUC in series [9], in series [17] and in series [29] were 30.7 µM·h, 19.6 µM·h and 3.48 µM·h, respectively. For the same molecule, the Tmax in [10] is 1.3 h. The molecule further gave an intrinsic metabolic clearance (CLint scaled) in [1] below 8 mL/min/kg. In series [16], the Cave came out at 551 nM. The molecule also came in with a Cmax in [18] of 1730 ng/mL. Also, the half-life in [19] was 2.7 h. Moreover, the fCmax in series [20] is given as 1530 nM. The molecule also came in with a clearance in [22] of 15.5 mL/min/kg. For the same molecule, in series [23], the Vd is 2.7 L/kg. For the same molecule, the logD in [2] was determined as 2.3. This molecule also returned an AUC(0-inf) in series [25] of 1150 ng·h/mL. In [26], this molecule yielded a bioavailability of 100%.

Molecule `Cc1nc([C@](C)(O)CO)sc1-c1cnc(N)c(O[C@H](C)c2cc(F)ccc2-n2nccn2)c1` gave a CLint scaled in [1] of 13 mL/min/kg.

On to `C[C@@H](Oc1cc(-c2cccc(S(C)(=O)=O)c2)cnc1N)c1cc(F)ccc1-n1nccn1`, for which the intrinsic clearance (CLint scaled) in [1] stood at 10 mL/min/kg. Moreover, the pH-dependent lipophilicity (logD) in series [2] was determined as 3.4.

As for `Cc1nn(C)c2c1-c1cnc(N)c(c1)O[C@@H](C)c1cc(F)ccc1C(=O)N(C)C2`, the CLint scaled in series [1] came to 8 mL/min/kg. In series [2], the logD came out at 2.2.

Regarding `C[C@H]1Oc2cc(cnc2N)-c2c(nn(C)c2C#N)CCCOc2ccc(F)cc21`, the logD in series [2] was 3.8.

Molecule `Cc1nn(C)c2c1-c1cnc(N)c(n1)O[C@H](C)c1cc(F)ccc1C(=O)N(C)C2` returned an intrinsic metabolic clearance (CLint scaled) in [1] of 8 mL/min/kg. In [2], this molecule came in with a logD of 2.5.

Regarding `COc1ccc(F)cc1[C@@H](C)Oc1cc(-c2cnnn2C)cnc1N`, in [1], the CLint scaled is 25 mL/min/kg. Besides, the pH-dependent lipophilicity (logD) in [2] is 2.4.

Regarding `C[C@H]1Oc2cc(cnc2N)-c2cc(S(C)(=O)=O)ccc2CN(C)C(=O)c2ccc(F)cc21`, in series [1], the CLint scaled was 9.1 mL/min/kg. The molecule further gave a logD in series [2] of 1.8.

In series [1], `CNC(=O)c1ccc(F)cc1[C@@H](C)Oc1cc(-c2cn(C)nc2C)cnc1N` returned a CLint scaled of 28 mL/min/kg. In series [2], this molecule showed a logD of 2.1.

For the molecule `Cc1cnc2nc3c(n2c1)-c1cnc(N)c(c1)O[C@H](C)c1cc(F)ccc1C(=O)N(C)C3`, affinity in series [3] was put at a Ki of 0.077 µM. For the same molecule, in series [31], the efflux ratio stood at 20.2. For the same molecule, the intrinsic metabolic clearance (CLint scaled) in series [1] was below 8 mL/min/kg. The same molecule had a pH-dependent lipophilicity (logD) in [2] of 1.7.

For `Cc1nn(C)c2c1-c1cnc(N)c(c1)OCc1cc(F)ccc1C(=O)N(C)C2`, the CLint scaled in [1] came out at 8.4 mL/min/kg. The molecule also yielded a log distribution coefficient (logD) in [2] of 2.

For `N#Cc1[nH]nc2c1-c1cnc(N)c(c1)OCc1cc(F)ccc1OCCC2`, in series [2], the pH-dependent lipophilicity (logD) was found to be 3.6.

Take `C[C@H]1Oc2nc(cnc2N)-c2c(nc3ccc(C#N)cn23)CN(C)C(=O)c2ccc(F)cc21`: affinity in [3] was put at a Ki of 0.065 µM. For the same molecule, the CLint scaled in [1] is below 8 mL/min/kg. The logD in [2] stood at 2.4.

`Cc1nn(C)c2c1-c1cnc(N)c(n1)O[C@@H](C)c1cc(F)ccc1C(=O)N(C)C2`: the CLint scaled in [1] was determined as 9.7 mL/min/kg. In addition, the logD in [2] came to 2.5.

In series [1], `C[C@H]1Oc2nc(cnc2N)-c2cc(S(C)(=O)=O)ccc2CN(C)C(=O)c2ccc(F)cc21` returned an intrinsic clearance (CLint scaled) of 8 mL/min/kg. Also, the logD in series [2] was found to be 2.2.

Take `COc1ncccc1-c1cnc(N)c(O[C@H](C)c2cc(F)ccc2-n2nccn2)n1`: in series [1], the intrinsic clearance (CLint scaled) came out at 41 mL/min/kg. In [2], this molecule displayed a logD of 4.

For the molecule `C[C@H]1Oc2cc(cnc2N)-c2c(C3CC3)nn(C)c2CN(C)C(=O)c2ccc(F)cc21`, affinity in series [3] was put at a Ki of 0.0004 µM. The same molecule registered a CLint scaled in series [1] of 14.6 mL/min/kg. In series [2], the logD came out at 2.9.

Take `Cn1ncc2c1-c1cnc(N)c(c1)OCc1cc(F)ccc1OCCC2`: the logD in [2] turned out to be 3.4.

In turn, `N#Cc1[nH]nc2c1-c1cnc(N)c(c1)OCc1cc(F)ccc1OCC2` returned a logD in series [2] of 3.

Turning to `C[C@H]1Oc2cc(cnc2N)-c2c(nn(C)c2C#N)CCOc2ccc(F)cc21`, in series [2], the log distribution coefficient (logD) came out at 3.3.

On to `Cc1nn(C)cc1-c1cnc(N)c(O[C@H](C)c2cc(F)ccc2-n2nccn2)c1`, for which the CLint scaled in series [1] worked out at 66 mL/min/kg.

In series [2], `Cn1ncc2c1-c1cnc(N)c(c1)OCc1cc(F)ccc1OCCCC2` returned a logD of 3.1.

On to `Cc1nn(C)cc1-c1cnc(N)c(O[C@H](C)c2cc(F)ccc2C(=O)N(C)C)c1`, for which the results for the Ki in [32] and in series [33] were 0.31 µM and 0.022 µM, respectively. Besides, the efflux ratio in series [31] came to 7.6. Moreover, the intrinsic clearance (CLint scaled) in series [1] was found to be 58 mL/min/kg. In addition, the pH-dependent lipophilicity (logD) in [2] stood at 2.1.

In series [1], `COc1nn(C)c2c1-c1cnc(N)c(c1)O[C@H](C)c1cc(F)ccc1C(=O)N(C)C2` registered a CLint scaled of 8.3 mL/min/kg. Also, the logD in [2] was 2.4.

The molecule `CNC(=O)c1ccc(F)cc1[C@@H](C)Oc1nc(-c2cccnc2OC)cnc1N` registered a CLint scaled in series [1] of 76 mL/min/kg. The molecule also returned a pH-dependent lipophilicity (logD) in series [2] of 3.
